{"source": "patent US20240252652A1", "about": "“PROTEINS HAVING UNNATURAL AMINO ACIDS AND METHODS OF USE” (The Regents of the University of California, priority 2021, published 2024)", "key": {"m^6A modified RNA": {"test_system": "m^6A modified RNA", "assay": "GRIP-seq (high-throughput sequencing)", "format": "cell-based, human", "source_text": "To detect endogenous m^6A sites in mammalian cells throughout the transcriptome, we developed GRIP-seq through combining GRIP for m^6A with high-throughput sequencing, enabling global identification of m^6A sites in vivo with single-nucleotide resolution (FIG. 12A). In brief. HEK293T cells expressing YTH-397SFY protein (FIG. 19A) were lysed and treated with RNase to partially digest RNA into short fragments. After GRIP for these cell lysates (FIG. 19A), the purified protein-RNA cross-links were treated with proteinase K to release the cross-linked RNA fragments, which were converted into a cDNA library through adapting the enhanced CLIP protocol and then subjected to high-throughput sequencing. All m^6A sites cross-linked by YTH-397SFY protein in vivo would be captured and identified by reverse transcription termination at the upstream cross-linked nucleotides. Van Nostrand et al. Nat. Methods 13:508-514 (2016)\nWe generated four pairs of GRIP-seq libraries. For each pair, we generated one library for the INPUT sample, which represents the RNA fragments from the whole cell lysate, and one library for the IP sample, which represents the RNA fragments cross-linked with the purified YTH proteins. […] For each library, around 10 to 35 million reads were obtained (data not shown). After removing adaptors, we first mapped the reads to the transcriptome. […]"}, "Afb-Z complex": {"test_system": "Afb-Z complex", "assay": "Cross-linking of MBP-Z24SFY and Afb4A-7X in live E. coli cells", "format": "cell-based", "details": "6 h expression, Western blot", "source_text": "To determine which amino acid residues could react with SFY via proximity-enabled reactivity directly in cells, we coexpressed in E. coli the Z protein and an affibody (Afb) specifically binding it. Based on the crystal structure of Afb-Z complex, we introduced SFY at site 24 of the Z protein and various natural residues at site 7 of the affibody (FIG. 11D), placing the two residues in close proximity upon Afb-Z binding. (Wang et al. J. Am Chem. Soc. 140:4995-4999 (2018)). After expression of Afb(24SFY) and Z(7X) (X=target residue) for 6 h. cells were lysed and analyzed with Western blot under denatured conditions (FIG. 11E). Crosslinking bands corresponding to the adduct of Afb and Z were detected for target residue His. Tyr, and Lys, for both Mm-tRNA^Pyl/MmSFYRS and Ma-tRNA^Pyl/MaSFYRS. We then purified 6×His-tagged Z and Afb proteins from cells and analyzed with SDS-PAGE. Consistently, a protein band corresponding to the cross-linked Z with Afb was clearly observed for Afb-7Lys. Afb-7His, and Afb-7Tyr (FIG. 11E). We further tested if SFY could crosslink with these residues in mammalian cells. […] (Liu et al. J. Am Chem. 141:9458-9462 (2019)). We incorporated SFY at site 103 of GST and mutated residue 107 to various target residues. HEK293T cells expressing these GST mutants were lysed and Western blotted to detect covalent GST dimer formation (FIG. 11G). […]"}}}
{"smiles": "COc1ccc(C[C@H](N)C(=O)O)cc1S(=O)(=O)F", "note": "[SFY, (S)-1-carboxy-2-(3-(fluorosulfonyl)-4-methoxyphenyl)ethan-1-aminium]", "values": [{"measurement": "RNA nucleotides cross-linked in vivo", "setting": "m^6A modified RNA", "value": "all four RNA nucleotides"}, {"measurement": "target residues giving crosslinking bands (adduct of Afb and Z)", "setting": "Afb-Z complex", "value": "detected for target residue His. Tyr, and Lys"}]}
